Data from paper PMC6874057, “Synthesis of Chalcone Derivatives: Inducing Apoptosis of HepG2 Cells via Regulating Reactive Oxygen Species and Mitochondrial Pathway” (Frontiers in Pharmacology, 2019).

Tests used:
A549 = experiment: MTT cell viability assay, A549; type: cell-based, human; conditions: mean ± SE
Procedure: (§1) HeLa, A549, HepG2, HL-60, and WI-38 cell lines were incubated in DMEM solution containing 10% FBS for 48 h. The incubated tumor cells were seeded into 96-well plates (5 × 10^3 cells/well) to make them attach for 12 h. Afterwards, the cells were processed with the various concentrations of the synthetic compounds and 5-FU for 48 h. After removing the cell culture supernatant, 10 µl MTT (5 mg/ml) solution was dripped into the cells to generate a formazan product, which were dissolved by dimethyl sulfoxide (DMSO) 4 h later. Multifunction microplate reader (Bio-Rad Laboratories, Shanghai, China) was adopted to measure the absorbance at the wave length of 490 nm. The IC50 (the lowest drug concentration causing 50% of the tumor cells inhibition) was then calculated using GraphPad Prism Software (version 5.02) and used to indicate the cytotoxic effect of the target compounds on the selected tumor cells.

Hela = experiment: MTT cell viability assay, Hela; type: cell-based, human; conditions: 48 h, mean ± SE
Procedure: as §1

HepG2 = experiment: MTT cell viability assay, HepG2; type: cell-based, human; conditions: mean ± SE
Procedure: as §1

HL-60 = experiment: MTT cell viability assay, HL-60; type: cell-based, human; conditions: mean ± SE
Procedure: as §1

WI-38 = experiment: MTT cell viability assay, normal cell line WI-38; type: cell-based, human; conditions: normal cells, mean ± SE
Procedure: as §1

[1] = tested on: adherent tumor cell lines (HepG2, A549 and Hela); experiment: MTT assay, summary over adherent tumor cell lines; type: cell-based; conditions: Homo sapiens; span of IC50 over compounds a11-a14 and adherent tumor cell lines; read-out: IC50 range over cell lines
Procedure: as §1

[2] = tested on: mitochondrial membrane potential in HepG2 cells; experiment: Mitochondrial membrane potential by JC-1 probe; type: cell-based, human; conditions: CCCP for 20 min, without a14, positive control
Procedure: JC-1 probe was used to detect changes in MMP. Firstly, HepG2 cells (3 × 10^5 cells/well) were seeded into a six-well plate overnight for adherence, and then treated with various concentrations of a14 for 48 h. Next, the cells were treated with JC-1 (2.5 µg/ml) at 37°C for 10 min in the dark and rinsed three times with PBS. Then, the six-well plate was placed under the fluorescence microscope (excitation 480/30× nm, emission 515 nm) to observe the fluorescence color and intensity of JC-1 in the cells. In addition, HepG2 cells (3 × 10^5 cells/well) were inoculated on another six-well plate overnight to allow adherence, and then treated with a14 (50 µM) for 0, 12, 24, 36, and 48 h, adding CCCP (without a14) for 20 min to completely lose the mitochondrial membrane potential. Cells were then incubated with JC-1 (2.5 µg/ml) at 37°C in the dark for 10 min and rinsed with PBS for three times. Fluorescence intensity of residual JC-1 in cells was measured by Beckman Coulter flow cytometer (FITC, 525/40BP). The data obtained was analyzed by CytExpert 2.0 software imbedded in the flow cytometry.

| Compound | IC50 (A549; 48 h) | IC50 (Hela) | IC50 (HepG2; 48 h) | IC50 (HL-60; 48 h) | IC50 (A549; Homo sapiens, A549, 48 h) | IC50 (Hela; Homo sapiens, HeLa) | IC50 (HepG2; Homo sapiens, HepG2, 48 h) | IC50 (HL-60; Homo sapiens, HL-60, 48 h) | IC50 [1] | IC50 (WI-38; 48 h) | IC50 (WI-38; Homo sapiens, WI-38, 48 h) | JC-1 (FITC), right of the gate line (green fluorescence) [2] |
| --- | --- | --- | --- | --- | --- | --- | --- | --- | --- | --- | --- | --- |
| O=c1[nH]cc(F)c(=O)[nH]1 [5-FU, reference compound] | 53.7 ± 1.16 µM | 35.2 ± 1.39 µM | 42.9 ± 2.88 µM | 165 ± 4.74 µM | – | – | – | – | – | 62.8 ± 2.03 µM | – | – |
| NC(=O)c1cc(C(=O)/C=C/c2cccc(Cl)c2)ccc1O [a2] | – | – | – | – | 82.5 ± 3.61 µM | 98.9 ± 2.9 µM | 77 ± 1.34 µM | 135 ± 2.45 µM | – | – | 122 ± 2.33 µM | – |
| NC(=O)c1cc(C(=O)/C=C/c2cccc(Br)c2)ccc1O [a3] | – | – | – | – | 59.6 ± 5.23 µM | 77.6 ± 4.74 µM | 71.2 ± 4.63 µM | 141 ± 5.19 µM | – | – | 126.2 ± 0.46 µM | – |
| COc1ccccc1/C=C/C(=O)c1ccc(O)c(C(N)=O)c1 [a9] | – | – | – | – | 57.6 ± 1.42 µM | 65.1 ± 1.34 µM | 80.3 ± 1.87 µM | 210 ± 3.03 µM | – | – | 98.5 ± 4.91 µM | – |
| COc1cccc(/C=C/C(=O)c2ccc(O)c(C(N)=O)c2)c1 [a10] | – | – | – | – | 45.6 ± 1.05 µM | 54.4 ± 1.11 µM | 70.8 ± 4.03 µM | 131 ± 4.64 µM | – | – | 93.3 ± 3.13 µM | – |
| COc1ccc(/C=C/C(=O)c2ccc(O)c(C(N)=O)c2)c(OC)c1 [a12] | – | – | – | – | 41.2 ± 2.15 µM | 35.3 ± 2.13 µM | 54.37 ± 0.52 µM | 160 ± 3.59 µM | 23.3 to 54.4 µM | – | 123 ± 2.45 µM | – |
| COc1ccc(/C=C/C(=O)c2ccc(O)c(C(N)=O)c2)cc1OC [a13] | – | – | – | – | 37.6 ± 1.11 µM | 31.8 ± 1.62 µM | 50.3 ± 4.03 µM | 134 ± 4.44 µM | 23.3 to 54.4 µM | – | 118 ± 3.53 µM | – |
| carbonyl cyanide m-chlorophenyl hydrazine [CCCP, reference compound] | – | – | – | – | – | – | – | – | – | – | – | 99.98% |

Continued, in another order:

| IC50 (A549; 48 h) | IC50 (Hela) | IC50 (HepG2; 48 h) | IC50 (HL-60; 48 h) | IC50 (A549; Homo sapiens, A549, 48 h) | IC50 (Hela; Homo sapiens, HeLa) | IC50 (HepG2; Homo sapiens, HepG2, 48 h) | IC50 (HL-60; Homo sapiens, HL-60, 48 h) | IC50 [1] | Compound | IC50 (WI-38; 48 h) | IC50 (WI-38; Homo sapiens, WI-38, 48 h) | JC-1 (FITC), right of the gate line (green fluorescence) [2] |
| --- | --- | --- | --- | --- | --- | --- | --- | --- | --- | --- | --- | --- |
| – | – | – | – | 107 ± 2.14 µM | 125 ± 6.92 µM | 135 ± 9.79 µM | 131 ± 5.38 µM | – | NC(=O)c1cc(C(=O)/C=C/c2ccc(F)cc2)ccc1O [a1] | – | 229 ± 7.38 µM | – |
| – | – | – | – | 48.2 ± 2.25 µM | 65.9 ± 7.8 µM | 46.41 ± 0.05 µM | 110 ± 2.04 µM | – | NC(=O)c1cc(C(=O)/C=C/c2ccc(Br)cc2)ccc1O [a4] | – | 100 ± 11.5 µM | – |
| – | – | – | – | 57.2 ± 1.53 µM | 82.2 ± 4.8 µM | 68.1 ± 5.51 µM | 108 ± 3.5 µM | – | NC(=O)c1cc(C(=O)/C=C/c2ccccc2)ccc1O [a5] | – | 127 ± 6.6 µM | – |
| – | – | – | – | 51.3 ± 2.11 µM | 74.8 ± 2.33 µM | 75.4 ± 3.27 µM | 213 ± 2.98 µM | – | Cc1ccccc1/C=C/C(=O)c1ccc(O)c(C(N)=O)c1 [a6] | – | 109 ± 1.49 µM | – |
| – | – | – | – | 40.7 ± 3.68 µM | 40.7 ± 1.33 µM | 55.6 ± 3.23 µM | 111 ± 1.57 µM | – | Cc1cccc(/C=C/C(=O)c2ccc(O)c(C(N)=O)c2)c1 [a7] | – | 81.7 ± 1.13 µM | – |
| – | – | – | – | 65 ± 2.35 µM | 53.6 ± 0.67 µM | 57.4 ± 3.07 µM | 301 ± 3.53 µM | – | Cc1ccc(/C=C/C(=O)c2ccc(O)c(C(N)=O)c2)cc1 [a8] | – | 147 ± 13.2 µM | – |
| – | – | – | – | 35.8 ± 1.02 µM | 48.2 ± 0.56 µM | 44.7 ± 1.56 µM | 245 ± 5.54 µM | 23.3 to 54.4 µM | COc1ccc(/C=C/C(=O)c2ccc(O)c(C(N)=O)c2)cc1 [a11] | – | 89.5 ± 6.61 µM | – |
